Results published in US7332279B2 (Glycozym APS, priority 1999, dated 2008).

Molecular target: T1, β4Gal-T2 (Homo sapiens, UniProt O60909)
T1 construct: The kinetic properties were determined with partially purified, secreted forms of the enzymes; made in house; host or cells: baculovirus; insect cells (Sf9 / High Five)
T1 sequence (O60909 37-372 limits assumed): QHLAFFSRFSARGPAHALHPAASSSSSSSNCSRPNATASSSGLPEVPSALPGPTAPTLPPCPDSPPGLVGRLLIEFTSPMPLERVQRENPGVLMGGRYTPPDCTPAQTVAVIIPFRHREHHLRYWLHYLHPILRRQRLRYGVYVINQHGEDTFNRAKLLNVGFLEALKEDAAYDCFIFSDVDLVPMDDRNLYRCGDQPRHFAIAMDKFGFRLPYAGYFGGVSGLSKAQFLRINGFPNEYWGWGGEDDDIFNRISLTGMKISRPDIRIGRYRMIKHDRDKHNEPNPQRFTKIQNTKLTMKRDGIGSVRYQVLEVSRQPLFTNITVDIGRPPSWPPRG
Assay: Galactosyltransferase assay, recombinant β4Gal-T2, saccharide acceptors
Assay type: biochemical
Protocol: An expression construct (pAcGP67-β3Gal-T5-sol) designed to exclude the hydrophobic transmembrane segment and to encode amino acid residues 25-310, was prepared by PCR using P1 genomic DNA, and the primer pair EBER1300 sol (5′-[…]) (SEQ ID NO:3) and EBER1310 (5′-[…]) (SEQ ID NO:4) (FIG. 1), which included BamHI restriction sites. PCR product was cloned into the BamHI site of pAcGP67B (Pharmingen). An expression construct (pVL-β3Gal-T5-full) designed to encode the full coding sequence (from first ATG, FIG. 1) was prepared by PCR with P1 genomic DNA using the primer pair EBER1309 (5′-[…]) (SEQ ID NO:5) and EBER1310. This PCR product was cloned into the BamHI site of pVL1193 (Pharmingen). Both soluble and full length constructs were fully sequenced to confirm fidelity. Plasmids pAcGP67-β3GalT5-sol and pVL-β3Gal-T5-full were co-transfected with Baculo-Gold™ DNA (Pharmingen) as described previously (Bennett, E. P., Hassan, H. and Clausen, H. cDNA cloning and expression of a novel human UDP-N-acetyl-alpha-D-galactosamine. Polypeptide N-acetyl-galactosaminyl-transferase, GalNAc-T3. J. Biol. Chem. 271:17006-17012, 1996). Recombinant Baculo-virus were obtained after two successive amplifications in Sf9 cells grown in serum-containing medium, and titers of virus were estimated by titration in 24-well plates with monitoring of enzyme activities. […] Polypeptide N-acetyl-galactosaminyl-transferase, GalNAc-T3. J. Biol. Chem. 271:17006-17012, 1996). For large scale expression amplified virus was used to infect High Five™ cells grown in serum-free media (Invitrogen) in upright roller bottles shaking at 140 rpm and 27° C.
The kinetic properties were determined with partially purified, secreted forms of the enzymes. Semipurification of enzymes from serum-free medium of infected High-Five™ cells was performed by sequential Amberlite, DEAE-Sephacel and 5-Sepharose chromatography as described previously (Wandall, H. H., Hassan, H., Mirgorodskaya, E., et al. Substrate specificities of three. members of the human UDP-N-acetyl-alpha-D-galactosamine:Polypeptide Nacetylgalactosaminyltransferase family, GalNAc-T1, -T2, and -T3. J. Biol. Chem. 272:23503-23514, 1997). Comparisons of enzymes were performed relatively to the activity obtained with βGlcNAc-Bz1 (Tables II and III). Full length enzymes were assayed with 1% Triton CF54 homogenates of washed cells. Enzyme assays were performed in 50 μl total reaction mixtures containing 25 mM Cacodylate (pH 7.5), 10 mM MnCl2, 0.25% Triton X-100, 100 μM UDP-[^14C]-Gal (2,600 cpm/nmol) (Amersham), and varying concentrations of acceptor substrates (Sigma) (see Table I for structures). Reaction products were quantified by Dowex-1 chromatography. […] The transfer of Gal was evaluated after acid precipitation by filtration through Whatman GF/C glass fibre filters. […] Assays with glycolipid acceptors were conducted as previously described (Holmes, E. H. Characterization and membrane organization of beta 1-3- and beta 1-4-galactosyltransferases from human colonic adenocarcinoma cell lines Cob 205 and SW403: basis for preferential synthesis of type 1 chain lacto-series carbohydrate structures. Arch Biochem Biophys 270:630-646, 1989) in reaction mixtures containing 2.5 μmol HEPES buffer, pH 7.2, μmol MnCl2, 100 μg taurodeoxycholate or Triton CF-54, 20 μg acceptor glycolipid, 15 nmol UDP-[^14C]-galactose (13,000 cpm/nmol) and enzyme in a total volume of 100 μl. Conditions for incubation and product isolation were as previously described (Id.).

Compound	β4Gal-T2 activity, acceptor 0.2 mM	β4Gal-T2 ratio to value with βGlcNAc-Bzl, acceptor 0.2 mM	β4Gal-T2 activity, acceptor 2 mM (2 mM)	β4Gal-T2 ratio to value with βGlcNAc-Bzl, acceptor 2 mM (2 mM)	β4Gal-T2 activity with βGlcNAc-Bzl (β-D-GlcNAc-Bzl at 0.25 mM)
CC(=O)NC1C(OC2C(O)C(CO)OC(Oc3ccc([N+](=O)[O-])cc3)C2NC(C)=O)OC(CO)C(O)C1O [β-D-GlcNAc-(1–3)-α-D-GalNAc-p-Nph]	0.2 nmol/min	(0.6)	0.01 nmol/min	(0.3)	
CC(=O)N[C@H]1[C@H](OCc2ccccc2)O[C@H](CO)[C@@H](O)[C@@H]1O [β-D-GlcNAc-Bzl]					0.03 nmol/min
CC(=O)N[C@H]1[C@H](OC[C@H]2O[C@H](Oc3ccc([N+](=O)[O-])cc3)[C@H](NC(C)=O)[C@@H](O[C@@H]3O[C@H](CO)[C@H](O)[C@H](O)[C@H]3O)[C@H]2O)O[C@H](CO)[C@@H](O)[C@@H]1O [βGlcNAc(1,6)[βGal(1,3)]αGalNAc-p-Nph]	0.03 nmol/min	(1.0)			
